Patent publication US20250214996A1, “SALTS AND SOLID FORMS OF AN ESTROGEN RECEPTOR ANTAGONIST” (Olema Pharmaceuticals, Inc., priority 2022, published 2025)
Values after ≈ are worked out from the molar mass of the structure shown. Values joined by “and” are separate entries in the source; they are usually repeats but may differ in a detail not shown here. Equal entries are not always repeated. Where two headings read alike, the source gives them in different places. Marks after values point to notes of the source that are not given here.

Assays:
[1] = Solid form change on heating (XRPD); format: physicochemical
[2] = Kinetic solubility estimate, solvent aliquot addition, visual observation; format: physicochemical
Procedure: A polymorph screen was conducted using amorphous Compound 1. To help design the experiments, kinetic solubilities of the compound were estimated. The estimation was done using a solvent aliquot addition method, and dissolution was judged by visual observation. In Table 14, solvent ratios (v/v) are approximate; values are rounded to nearest whole number. If complete dissolution was achieved by one aliquot addition, solubilities were reported as “>”; if […], solubilities were reported as “<”. The actual solubility may be larger than the value calculated due to the use of solvent aliquots that were too large or due to a slow rate of dissolution.
A polymorph screen was conducted using Compound 1 Fumarate Form A Ethyl Acetate Solvate. The screen consisted primarily of long term slurry experiments. To help design screen experiments, kinetic solubilities of Fumarate Form A Ethyl Acetate Solvate were estimated. The estimation was done on a 3-11 mg scale using a solvent aliquot addition method, and dissolution was judged by visual observation. Solubilities are estimated at ambient temperature and reported to the nearest mg/mL; if complete dissolution was achieved by one aliquot addition, solubilites were reported as […]

[3] = Pharmacokinetic study in Beagle dogs, oral capsule; format: in vivo; conditions: for AUClast/D / AUC∞/D: dose-normalised
Procedure: Compound 1 […] in two different forms was administered orally (PO) to male and female Beagle dogs. Blood was serially collected up to 144 hours post dose for determination of plasma pharmacokinetic analysis.
Animals were healthy at the start of the study and were between 1 and 6.5 years of age. Initial body weights were recorded at the start of the study and general health observations were recorded at each blood collection time point.
Each Group contained 3 male and 1 female dog. Capsules were administered by placing the capsule to the back of the throat, followed by a 10 mL flush with drinking water.
Plasma concentrations of Compound 1 were determined by LC-MS/MS. Pharmacokinetic parameters were determined using Phoenix WinNonlin (v8.0) non-compartmental analyses.

[4] = Dynamic vapor sorption (DVS) hygroscopicity; format: physicochemical; conditions: for Form Change after DVS?: XRPD before and after DVS
Procedure: Dynamic Vapor Sorption (DVS) was measured by a SMS (Surface Measurement Systems) DVS Intrinsic. Parameters for DVS test are listed below:
Alternatively, DVS was performed using Intrinsic DVS ([…], UK). About 30-50 mg of sample was placed in a sample basked and hung in the measuring chamber. For an isotherm test, the chamber temperature is maintained by a water bath at a constant 25±1° C. The sample was tested at a targeted RH from 0 to 90% full cycle in step mode. The analysis was performed in 10% RH increments. Time duration at each RH was set as 60 min so that the sample could reach equilibrium with the chamber environment. Data were collected in 20 s increments.
A DVS isotherm plot was collected at 25° C. to investigate the solid form stability as a function of humidity. For Compound 1 Fumarate Form A Anhydrate, solids were pre-equilibrated at 0% RH to remove the unbounded solvent or water before the hygroscopicity experiment was started.

[5] = Solubility by dynamic method; format: physicochemical; conditions: for Solubility / solubility at 15 min: Dynamic; for solubility at 15 min: organic solvent or mixture, thermodynamic from solid
Procedure: […] Solubility was measured by the dynamic method and gravimetric method.
Dynamic method: Under the condition of a certain amount of solute and certain temperature, solvent was gradually added with stirring for 15 min to reach equilibrium. When solute is completely dissolved, amount of solvent was recorded and the solubility calculated.

[6] = Solubility by gravimetric method; format: physicochemical; conditions: H2O, 25° C.
Procedure: Solubility studies of Compound 1 and Compound 1 Fumarate in different solvents at 25° C. were performed. Solubility was measured by the dynamic method and gravimetric method.
Gravimetric method: Excess solids and a certain amount of solvent were added 8 mL vials, stirred for 24 hours, and filtered.

[7] = Bulk density in graduated cylinder; format: physicochemical
Procedure: Bulk density of Compound 1 Fumarate Form E was measured by gently introducing a known sample mass into a graduated cylinder (50 mL), leveling the powder without compacting it, and recording the apparent untapped volume to the nearest graduated unit.

[8] = Stability in oven at 60° C. for two weeks; format: physicochemical; conditions: for HPLC Purity (%) Starting: before storage; for XRPD: form after oven at 60° C. for two weeks
Procedure: Amorphous Compound 1, Compound 1 Fumarate Form E, and Compound 1 Fumarate Form A Anhydrate were placed in an oven at 60° C. for two weeks to evaluate their stability.

[9] = Competitive slurry of Fumarate Form E and Fumarate Form A Anhydrate (XRPD); format: physicochemical
Procedure: Competitive slurry experiments were performed with Compound 1 Fumarate Form E and Compound 1 Fumarate Form A Anhydrate, as follows:
Experiment #1: Compound 1 Fumarate Form E (100 mg), Compound 1 Fumarate Form A Anhydrate (100 mg), and isopropanol (2 mL) were added into two 8-mL vials and mixed well in a shaker at 25° C. and 40° C., respectively. Samples for analysis were taken at 24 h and 72 h.
Experiment #2: Compound 1 Fumarate Form E (100 mg), Compound 1 Fumarate Form A Anhydrate (100 mg), and water (2 mL) were added into two 8-mL vials and mixed well in a shaker at 25° C. and 40° C., respectively. Samples for analysis were taken at 24 h and 72 h.
Experiment #3: Compound 1 Fumarate Form E (100 mg), Compound 1 Fumarate Form A Anhydrate (100 mg), and ethyl acetate (2 mL) were added into two 8-mL vials and mixed well in a shaker at 25° C. and 40° C., respectively. Samples for analysis were taken at 24 h and 72 h.

[10] = dose 5.34 mg/kg (Group 1), 7.4 mg/kg (Group 2), plasma
[11] = both sexes, dog, dose 5.34 mg/kg (Group 1), 7.4 mg/kg (Group 2), plasma

## CCCN1CC(Oc2ccc([C@@H]3c4[nH]c5ccccc5c4C[C@@H](C)N3CC(C)(C)F)cc2)C1 [Compound 1 Form B]
[1]; heating to 100° C.
  form after heating (XRPD): became amorphous

## CCCN1CC(Oc2ccc([C@@H]3c4[nH]c5ccccc5c4C[C@@H](C)N3CC(C)(C)F)cc2)C1.O=C(O)/C=C/C(=O)O
[2]; ambient temperature, 2-BuOH
  Solubility: 17 mg/mL
[2]; ambient temperature, 2-McTHF
  Solubility: 32 mg/mL
[2]; ambient temperature, ACN, re-precipitated after first aliquot
  Solubility (mg/mL): <2* mg/mL
[2]; ambient temperature, Anisole
  Solubility: <1 mg/mL
[2]; ambient temperature, DCE
  Solubility: <9 mg/mL
[2]; ambient temperature, DCE/EtOH (96/4)
  Solubility (mg/mL): Dissolved at 8 mg/mL
[2]; ambient temperature, Dioxane
  Solubility: >104 mg/mL
[2]; ambient temperature, IPA
  Solubility: 20 mg/mL
[2]; ambient temperature, IPA/water (50/50)
  Solubility: >124 mg/mL
[2]; ambient temperature, MIBK
  Solubility: 4 mg/mL
[2]; ambient temperature, MTBE
  Solubility: 2 mg/mL
[2]; ambient temperature, TFE
  Solubility: >100 mg/mL
[2]; ambient temperature, t-BuOAc, re-precipitated after first aliquot
  Solubility (mg/mL): 1* mg/mL
[3]; dose 5.34 mg/kg (Group 1), 7.4 mg/kg (Group 2)
  AUC∞: 17271 ng·h/mL
[3]; [10]
  MRTlast: 39.8 h
  t1/2: 49.6 h
  tmax: 3.5 h
[3]
  AUClast/D: 2001 kg·ng·h/mL/mg
  AUC∞/D: 2351 kg·ng·h/mL/mg

## CCCN1CC(Oc2ccc([C@@H]3c4[nH]c5ccccc5c4C[C@@H](C)N3CC(C)(C)F)cc2)C1 [Compound 1 Form A Acetonitrile Solvate]
[4]; DVS
  hygroscopicity by DVS: slightly hygroscopic
[4]; DVS, FIG. 4
  water uptake (DVS): 1.9%
[4]
  Form Change after DVS?: same crystalline pattern after DVS
[1]; heating to 70° C. and 80° C.
  form after heating (XRPD): became amorphous

## CCCN1CC(Oc2ccc([C@@H]3c4[nH]c5ccccc5c4C[C@@H](C)N3CC(C)(C)F)cc2)C1.O=C(O)/C=C/C(=O)O [Compound 1 Fumarate Form E]
[4]; DVS
  hygroscopicity by DVS: not hygroscopic
[5]; IPA/heptane (1/1), 25° C.
  Solubility: ~2.35 mg/mL
[5]; IPA/heptane (1/3), 25° C.
  Solubility: <1 mg/mL
[5]; IPA/heptane (5/1), 25° C.
  Solubility: 5.89 mg/mL
[5]; IPA/heptane (5/3), 25° C.
  Solubility: ~3.57 mg/mL
[5]; IPA, 0° C.
  Solubility: <1 mg/mL
[5]; IPA, 25° C.
  Solubility: ~8.46 mg/mL
[5]; 25° C.
  solubility in isopropanol: very low solubility
[6]
  Solubility: 1.0 mg/mL
[7]; average of three runs
  Bulk Density (g/mL), Average: 0.1239 g/mL
[7]; untapped, runs 1-3
  Bulk Density: 0.1288 g/mL and 0.1233 g/mL and 0.1196 g/mL
[8]
  HPLC Purity (%) Starting: 99.54%
  XRPD: No change
[8]; oven at 60° C. for two weeks
  HPLC Purity (%) 60° C.: 99.50%
  HPLC Purity (%) Degradation: −0.05%
  stability relative to Amorphous Compound 1: improved stability
[9]; ethyl acetate, 72 h at 25° C. or 40° C.
  competitive slurry outcome (XRPD): a mixture of Compound 1 Fumarate Form E and Compound 1 Fumarate Form A Anhydrate remained
[9]; isopropanol, 24 h at 25° C. or 40° C.
  competitive slurry outcome (XRPD): more stable than Form A in isopropanol
[9]; water, 72 h at 25° C. or 40° C.
  competitive slurry outcome (XRPD): a mixture of Compound 1 Fumarate Form E and Compound 1 Fumarate Form A Anhydrate remained

## O=C(O)/C=C/C(=O)O [Fumaric acid]
[5]; 25° C.
  solubility in isopropanol: relatively low solubility
[5]; IPA, 25° C.
  solubility at 15 min: 34.3 mg/mL (≈ 296 mM)

## CCCN1CC(Oc2ccc([C@@H]3c4[nH]c5ccccc5c4C[C@@H](C)N3CC(C)(C)F)cc2)C1 [Amorphous Compound 1]
[4]; listed as Amorphous Freebase
  Form Change after DVS?: No
[4]; based on water uptake at 25° C./80% RH
  Hygroscopicity (%)* (class): Slightly
[4]; water uptake at 25° C./80% RH
  Hygroscopicity (%)* (water uptake): (0.463) %
[2]; aqueous with cosolvent or surfactant or cyclodextrin, thermodynamic from solid, amorphous Compound 1, 2-MeTHF/MeOH/water (60/20/20), read-out: Solubility
  Solubility: 106 mg/mL (≈ 236 mM)
[2]; aqueous with cosolvent or surfactant or cyclodextrin, thermodynamic from solid, amorphous Compound 1, ACN/water (60/40), read-out: Solubility
  Solubility: < 6 mg/mL
[2]; aqueous with cosolvent or surfactant or cyclodextrin, thermodynamic from solid, amorphous Compound 1, Dioxane/water (60/40), read-out: Solubility
  Solubility: < 13 mg/mL
[2]; aqueous with cosolvent or surfactant or cyclodextrin, thermodynamic from solid, amorphous Compound 1, MeOH/water (40/60), appeared hydrophobic, read-out: Solubility
  Solubility: < 55 mg/mL
[2]; aqueous with cosolvent or surfactant or cyclodextrin, thermodynamic from solid, amorphous Compound 1, NMP/water (68/32), read-out: Solubility
  Solubility: 7 mg/mL (≈ 15.6 mM)
[2]; organic solvent or mixture, thermodynamic from solid, amorphous Compound 1, Heptane, read-out: Solubility
  Solubility: > 191 mg/mL
[2]; organic solvent or mixture, thermodynamic from solid, amorphous Compound 1, IPA, read-out: Solubility
  Solubility: 82 mg/mL (≈ 182 mM)
[5]; 25° C.
  solubility in isopropanol: high solubility
[5]; IPA, 25° C.
  solubility at 15 min: > 468 mg/mL
[8]
  HPLC Purity (%) Starting: 99.23%
  XRPD: No change
[8]; oven at 60° C. for two weeks
  HPLC Purity (%) 60° C.: 98.94%
  HPLC Purity (%) Degradation: −0.29%
[3]; [11]
  Cmax: 343 ng/mL
  MRT last: 37.8 h
  half-life: 56.4 h
[3]; both sexes, dog, dose 5.34 mg/kg (Group 1), 7.4 mg/kg (Group 2), plasma, read-out: tmax
  tmax: 3.25 h
[3]; both sexes, dog, plasma, dose 5.34 mg/kg (Group 1), 7.4 mg/kg (Group 2)
  AUC(0-inf): 8960 ng·h/mL
[3]; both sexes, dog, plasma, dose 5.34 mg/kg (Group 1), 7.4 mg/kg (Group 2), up to 144 hours
  AUC(0-t): 7460 ng·h/mL
[3]
  AUClast/D: 1297 kg·ng·h/mL/mg
  AUC∞/D: 1527 kg·ng·h/mL/mg
